The values that follow come from patent publication US8324245B2, “Quinoline derivative and quinazoline derivative inhibiting self-phosphorylation of hepatocytus proliferator receptor, and medicinal composition containing the same” (Kyowa Hakko Kirin Co., Ltd., priority 2001, dated 2012).

A word on the IC50: it is the concentration that gives 50% inhibition. The low end stands for inhibition by little substance, the high end for a need for much substance.

T1 sequence (P08581 25-1390): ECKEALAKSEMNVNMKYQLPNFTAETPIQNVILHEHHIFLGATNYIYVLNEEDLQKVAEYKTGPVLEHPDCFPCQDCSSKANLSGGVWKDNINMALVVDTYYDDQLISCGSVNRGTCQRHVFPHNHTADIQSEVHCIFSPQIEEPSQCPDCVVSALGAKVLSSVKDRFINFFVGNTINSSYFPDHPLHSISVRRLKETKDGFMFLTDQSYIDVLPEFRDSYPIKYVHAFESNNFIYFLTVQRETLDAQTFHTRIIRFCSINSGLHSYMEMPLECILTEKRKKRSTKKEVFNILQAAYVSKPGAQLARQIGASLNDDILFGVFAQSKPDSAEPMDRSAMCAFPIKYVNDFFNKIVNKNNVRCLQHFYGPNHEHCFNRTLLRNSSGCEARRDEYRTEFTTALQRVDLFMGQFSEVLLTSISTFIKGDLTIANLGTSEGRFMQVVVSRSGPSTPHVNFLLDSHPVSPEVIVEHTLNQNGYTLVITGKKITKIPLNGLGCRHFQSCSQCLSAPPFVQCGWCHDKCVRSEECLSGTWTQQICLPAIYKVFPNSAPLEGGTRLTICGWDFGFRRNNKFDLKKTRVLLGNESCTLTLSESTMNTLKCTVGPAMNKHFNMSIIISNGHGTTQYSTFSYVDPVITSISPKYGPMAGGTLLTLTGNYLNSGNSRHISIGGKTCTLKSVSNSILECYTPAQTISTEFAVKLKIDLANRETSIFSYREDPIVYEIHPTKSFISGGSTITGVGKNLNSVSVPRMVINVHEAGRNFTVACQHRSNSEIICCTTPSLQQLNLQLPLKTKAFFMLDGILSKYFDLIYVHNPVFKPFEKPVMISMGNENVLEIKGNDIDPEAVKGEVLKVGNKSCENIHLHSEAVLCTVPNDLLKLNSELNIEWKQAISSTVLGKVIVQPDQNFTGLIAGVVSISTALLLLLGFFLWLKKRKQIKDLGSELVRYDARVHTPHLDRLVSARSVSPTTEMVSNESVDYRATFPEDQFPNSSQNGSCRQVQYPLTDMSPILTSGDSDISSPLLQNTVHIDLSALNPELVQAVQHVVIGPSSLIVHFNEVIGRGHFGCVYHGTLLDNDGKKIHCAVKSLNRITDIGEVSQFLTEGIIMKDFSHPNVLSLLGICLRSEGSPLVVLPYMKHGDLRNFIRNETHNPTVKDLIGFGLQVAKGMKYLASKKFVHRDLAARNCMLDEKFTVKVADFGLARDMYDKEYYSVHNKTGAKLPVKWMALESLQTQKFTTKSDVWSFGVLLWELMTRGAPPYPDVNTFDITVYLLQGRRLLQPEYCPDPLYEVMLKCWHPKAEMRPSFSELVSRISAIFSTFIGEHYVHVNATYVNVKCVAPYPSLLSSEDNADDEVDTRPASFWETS

The assay has as its target T1, met (HGF receptor) in human gastric cancer cells MKN45 (Homo sapiens, UniProt P08581).
T1 construct: endogenous in cells; host or cells: MKN45 human gastric cancer cells
The experiment in a line: Inhibitory activity against met-autophosphorylation using ELISA method (2), MKN45 cells, HGF-independent. It counts as cell-based. As for the experimental part: Cells were cultured with RPMI medium containing 0.1% fetal calf serum in 96-well flat-bottom plate in an amount of 3×10^4 per well, and were incubated at 37° C. overnight. The medium was then replaced by a fresh RPMI medium containing 0.1% fetal calf serum. A solution of the test compound in dimethyl sulfoxide was added to each well, and the incuvation was continued at 37° C. for additional one hr. The medium was removed, the cells were washed with phosphate buffered saline (pH 7.4), and 50 μl of a lysis buffer (20 mM HEPES (pH 7.4), 150 mM NaCl, 0.2% Triton X-100, 10% glycerol, 5 mM sodium orthovanadylate, 5 mM disodium ethylenediaminetetraacetate, and 2 mM Na4P2O7) was then added thereto. The mixture was shaken at 4° C. for 2 hr to prepare a cell extract.
Separately, phosphate buffered saline (50 μl, pH 7.4) containing 5 μg/ml of anti-phospho-tyrosine antibody (PY20; purchased from Transduction Laboratories) was added to a microplate for ELISA (Maxisorp; purchased from NUNC), followed by gentle agitation at 4° C. overnight to coat the surface of the wells with the antibody. After washing of the plate, 300 μl of a blocking solution was added, followed by gentle agitation at room temperature for 2 hr to perform blocking. After washing, the whole quantity of the cell extract was transferred to the wells, and the plate was then allowed to stand at 4° C. overnight. After washing, an anti-HGF receptor antibody (h-Met (C-12), purchased from Santa Cruz Biotechnology) was allowed to react at room temperature for one hr, and, after washing, a peroxidase-labeled anti-rabbit Ig antibody (purchased from Amersham) was allowed to react at room temperature for one hr. After washing, a chromophoric substrate for peroxidase (purchased from Sumitomo Bakelite Co., Ltd.) was added thereto to initiate a reaction. After a suitable level of color development, a reaction termination solution was added to stop the reaction, and the absorbance at 450 nm was measured with a microplate reader.
On the technique in general: An ELISA detects its analyte on a solid surface through an enzyme-linked reagent.
`COc1cc2nccc(Oc3ccc(NC(=S)NC(=O)c4ccccc4Br)cc3F)c2cc1OC` [Example 146, 1-(2-bromobenzoyl)-3-[4-(6,7-dimethoxy-quinolin-4-yloxy)-3-fluorophenyl]thiourea]: the midpoint of inhibition, the IC50, lay at 1.21 µM.
Consider `COc1cc2nccc(Oc3ccc(NC(=S)NC(=O)CCCC(C)C)c(F)c3)c2cc1OC` [Example 178, 1-[4-(6,7-dimethoxyquinolin-4-yloxy)-2-fluorophenyl]-3-(5-methyl-hexanoyl)thiourea], for which the IC50 came to 0.268 µM.
Turning to `CCCCOCC(=O)NC(=S)Nc1ccc(Oc2ccnc3cc(OC)c(OC)cc23)c(Cl)c1` [Example 193, 1-(2-butoxyacetyl)-3-[3-chloro-4-(6,7-dimethoxyquinolin-4-yloxy)phenyl]thiourea], half-maximal inhibition (IC50) required 0.444 µM.
The figure for `COc1cc2nccc(Oc3ccc(NC(=S)NC(=O)Cc4cccc(Cl)c4)cc3F)c2cc1OC` [Example 173, 1-[2-(3-chlorophenyl)acetyl]-3-[4-(6,7-dimethoxyquinolin-4-yloxy)-3-fluorophenyl]thiourea] is 0.222 µM; for `COc1cc2nccc(Oc3ccc(NC(=O)NC(=O)Nc4ccc5c(c4)CCC5)cc3)c2cc1OC` [Example 243, N-(2,3-dihydro-1H-5-indenyl)-({[4-(6,7-dimethoxyquinolin-4-yloxy)anilino]carbonyl}amino)-methanamide] it is 3.01 µM; for `COc1cc2nccc(Oc3ccc(NC(=S)NC(=O)Cc4cccc(F)c4)cc3Cl)c2cc1OC` [Example 76, 1-[3-chloro-4-(6,7-dimethoxyquinolin-4-yloxy)-phenyl]-3-[2-(3-fluorophenyl)acetyl]thiourea] it is 0.0517 µM.
As for `COc1cc2c(Oc3ccc(NC(=O)NC(=O)Cc4ccc(F)cc4)c(F)c3)ccnc2cc1OCCCCN1CCOCC1` [Example 44, 1-{2-fluoro-4-[6-methoxy-7-(4-morpholin-4-yl-butoxy)quinolin-4-yloxy]phenyl}-3-[2-(4-fluorophenyl)-acetyl]urea], the midpoint of inhibition, the IC50, lay at 0.291 µM.
`COc1cc2nccc(Oc3ccc(NC(=O)NC(=O)Nc4ccc(CC#N)cc4)cc3)c2cc1OC` [Example 241, N-[4-(cyanomethyl)phenyl]-({[4-(6,7-dimethoxyquinolin-4-yloxy)anilino]carbonyl}amino)-methanamide] had an IC50 of 3.32 µM.
In turn, `COc1cc2nccc(Oc3ccc(NC(=S)NC(=O)Cc4ccc(F)c(F)c4)c(F)c3)c2cc1OC` [Example 198, 1-[2-(3,4-difluorophenyl)acetyl]-3-[4-(6,7-dimethoxyquinolin-4-yloxy)-2-fluorophenyl]thiourea] showed an IC50 of 0.294 µM.
As to `COc1cc2nccc(Oc3ccc(NC(=S)NC(=O)Cc4c(F)ccc(F)c4F)cc3)c2cc1OC` [Example 204, 1-[4-(6,7-dimethoxyquinolin-4-yloxy)phenyl]-3-[2-(2,3,6-trifluorophenyl)acetyl]thiourea], the half-maximal inhibitory concentration (IC50) is 0.321 µM.
The compound `COc1cc2nccc(Oc3ccc(NC(=S)NC(=O)Cc4cccc(C(F)(F)F)c4)cc3F)c2cc1OC` [Example 203, 1-[4-(6,7-dimethoxyquinolin-4-yloxy)-3-fluorophenyl]-3-[2-(3-trifluoromethylphenyl)acetyl]-thiourea] showed an IC50 of 0.281 µM.
The figure for `CCCCC(=O)NC(=O)Nc1ccc(Oc2ccnc3cc(OC)c(OC)cc23)c(Cl)c1` [Example 109, 1-[3-chloro-4-(6,7-dimethoxyquinolin-4-yloxy)phenyl]-3-pentanoylurea] is 1.48 µM; for `COc1cc2nccc(Oc3ccc(NC(=S)NC(=O)Cc4ccccc4)cc3OC)c2cc1OC` [Example 68, 1-[4-(6,7-dimethoxyquinolin-4-yloxy)-3-methoxyphenyl]-3-phenylacetylthiourea] it is 0.194 µM.
In turn, `COc1cc2nccc(Oc3ccc(NC(=S)NC(=O)Cc4cccc(F)c4)cc3F)c2cc1OC` [Example 75, 1-[4-(6,7-dimethoxyquinolin-4-yloxy)-3-fluoro-phenyl]-3-[2-(3-fluorophenyl)acetyl]thiourea] registered an IC50 of 0.0336 µM.
As to `COc1cc2nccc(Oc3ccc(NC(=S)NC(=O)Cc4cccc(Cl)c4)c(F)c3)c2cc1OC` [Example 172, 1-[2-(3-chlorophenyl)acetyl]-3-[4-(6,7-dimethoxyquinolin-4-yloxy)-2-fluorophenyl]thiourea], the IC50 turned out to be 0.423 µM.
`COc1cc2nccc(Oc3ccc(NC(=S)NC(=O)Cc4ccc(F)cc4)cc3)c2cc1OC` [Example 71, 1-[4-(6,7-dimethoxyquinolin-4-yloxy)phenyl]-3-[2-(4-fluorophenyl)acetyl]thiourea]: the IC50 was found to be 0.0299 µM.
Then `COC(=O)c1cccc(NC(=O)CC(=O)Nc2ccc(Oc3ccnc4cc(OC)c(OC)cc34)cc2)c1` [Example 213, methyl 3-{2-[4-(6,7-dimethoxyquinolin-4-yloxy)phenylcarbamoyl]acetylamino}benzoate], with 2.43 µM; and `COc1cc2nccc(Oc3ccc(NC(=S)NC(=O)c4cccc5ccccc45)c(F)c3)c2cc1OC` [Example 57, 1-[4-(6,7-dimethoxyquinolin-4-yloxy)-2-fluoro-phenyl]-3-(naphthalene-1-carbonyl)thiourea], with 0.132 µM.
The figure for `COc1cc2nccc(Oc3ccc(NC(=O)NC(=O)CC4C5CCC4CC5)c(F)c3)c2cc1OC` (centres unmarked) [Example 126, 1-(2-bicyclo[2.2.1]hepto-7-ylacetyl)-3-[4-(6,7-dimethoxyquinolin-4-yloxy)-2-fluorophenyl]urea] is 0.33 µM.
The figure for `COc1cc2nccc(Oc3ccc(NC(=O)NC(=O)CSc4nccn4C)cc3Cl)c2cc1OC` [Example 130, 1-[3-chloro-4-(6,7-dimethoxyquinolin-4-yloxy)phenyl]-3-[2-(1-methyl-1H-imidazol-2-ylsulfanyl)-acetyl]urea] is 2.16 µM.
Compound `COc1cc2nccc(Oc3ccc(NC(=S)NC(=O)Cc4ccccc4C)c(F)c3)c2cc1OC` [Example 170, 1-[4-(6,7-dimethoxyquinolin-4-yloxy)-2-fluorophenyl]-3-(2-o-tolylacetyl)thiourea] yielded an IC50 of 0.274 µM.
Then `COc1cc2c(Oc3ccc(NC(=O)NC(=O)Cc4ccc(F)cc4)cc3F)ccnc2cc1OCCCCN1CCCCC1` [Example 42, 1-{3-fluoro-4-[6-methoxy-7-(4-piperidine-1-yl-butoxy)quinolin-4-yloxy]phenyl}-3-[2-(4-fluorophenyl)-acetyl]urea], with 0.19 µM; and `COc1cc2nccc(Oc3ccc(NC(=O)NC(=O)Cc4cc(F)cc(F)c4)c(F)c3)c2cc1OC` [Example 141, 1-[2-(3,5-difluorophenyl)acetyl]-3-[4-(6,7-dimethoxyquinolin-4-yloxy)-2-fluorophenyl]urea], with 0.336 µM; and `COc1cc2nccc(Oc3ccc(NC(=O)NC(=O)Nc4cc(C)on4)cc3)c2cc1OC` [Example 232, N-(5-methyl-3-isoxazolyl)-({[4-(6,7-dimethoxyquinolin-4-yloxy)anilino]carbonyl}amino)-methanamide], with 0.256 µM.
The compound `COc1cc2nccc(Oc3ccc(NC(=O)NC(=O)CN4CCc5ccccc54)c(F)c3)c2cc1OC` [Example 121, 1-[2-(2,3-dihydro-1H-1-indol-1-yl)acetyl]-3-[4-(6,7-dimethoxyquinolin-4-yloxy)-2-fluorophenyl]urea] came in with a 50% inhibitory concentration (IC50) of 0.338 µM.
Then `COc1cc2nccc(Oc3ccc(NC(=S)NC(=O)Cc4cccc(F)c4F)c(F)c3)c2cc1OC` [Example 194, 1-[2-(2,3-difluorophenyl)acetyl]-3-[4-(6,7-dimethoxyquinolin-4-yloxy)-2-fluorophenyl]thiourea], with 0.319 µM.
